According to patent US9580426B2, “Compounds that expand hematopoietic stem cells” (Novartis AG, priority 2008, dated 2017):

Experiments:
AHR = biological target: T1, AHR (Mus musculus, UniProt P30561); assay: Dioxin induced AHR dependent transcription, murine cells; format: cell-based
T1 construct: endogenous in cells; host or cells: unnamed murine cells
T1 sequence (P30561 10-848): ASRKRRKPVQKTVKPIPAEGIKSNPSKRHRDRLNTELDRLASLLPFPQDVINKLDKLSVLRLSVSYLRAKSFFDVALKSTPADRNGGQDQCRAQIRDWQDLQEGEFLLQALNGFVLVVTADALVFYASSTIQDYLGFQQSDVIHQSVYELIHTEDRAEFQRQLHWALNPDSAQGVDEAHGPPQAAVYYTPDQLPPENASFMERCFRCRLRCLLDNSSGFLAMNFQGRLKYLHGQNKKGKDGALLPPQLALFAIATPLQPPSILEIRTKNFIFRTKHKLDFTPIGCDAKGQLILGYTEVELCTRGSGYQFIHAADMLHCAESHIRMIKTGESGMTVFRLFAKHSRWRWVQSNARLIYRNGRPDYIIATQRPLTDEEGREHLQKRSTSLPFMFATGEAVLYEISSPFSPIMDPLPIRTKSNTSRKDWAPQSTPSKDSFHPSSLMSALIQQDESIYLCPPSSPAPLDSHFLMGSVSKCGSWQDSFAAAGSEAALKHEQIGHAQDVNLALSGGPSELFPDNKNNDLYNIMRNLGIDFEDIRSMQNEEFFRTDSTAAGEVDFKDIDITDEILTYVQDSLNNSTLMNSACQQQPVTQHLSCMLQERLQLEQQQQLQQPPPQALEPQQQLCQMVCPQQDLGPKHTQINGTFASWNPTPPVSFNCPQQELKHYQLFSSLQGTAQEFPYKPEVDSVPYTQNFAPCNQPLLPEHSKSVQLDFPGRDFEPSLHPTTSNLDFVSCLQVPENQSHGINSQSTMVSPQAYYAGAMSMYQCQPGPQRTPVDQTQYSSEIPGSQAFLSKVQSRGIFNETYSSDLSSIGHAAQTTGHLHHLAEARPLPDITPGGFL
Description: Further, the ability of Example 1 to block 2,3,7,8-tetrachlorodibenzo-p-dioxin (TCDD, dioxin)-mediated CYP1B1 mRNA expression by qPCR in mPB-derived CD34^+ cells was determined. Treatment with TCDD (3 nM) caused a 4.5-fold increase in the level of CYP1B1 mRNA compared with the vehicle control (0.01% toluene). […] To determine the effects of Example 1 in AHR transcription the ability of Example 1 to inhibit a dioxin-induced AHR dependent luciferase reporter gene assay was tested.

[1] = test system: mPB CD34+ cells and CB CD34+ cells; assay: Colony-Forming Units in Culture (CFU-C) Assay; format: cell-based, human
Description: Colony-Forming Units in Culture (CFU-C) Assay: Mononuclear cells at 1000 per mL for cord blood 5 week and mPB 3 week culture and 100 cells per mL for C δ 3 week and mPB 1 week culture were added to MethoCult SF H4436, serum-free methylcellulose medium containing methylcellulose in Iscove's MDM, bovine serum albumin, 2-mercaptoethanol, L-glutamine, human transferring (iron saturated), recombinant human insulin, and recombinant human cytokines: stem cell factor, GM-CSF, IL-3, IL-6, G-CSF, and erythropoietin (StemCell Technologies). The MethoCult is supplemented with the following human recombinant cytokines: thrombopoietin, and Flt-3 ligand (R&D Systems), each at a final concentration of 50 ng/mL. After stirring, the mixture is divided into three 35-mm dishes. The dishes are incubated for 14 days at 37° C. in a humidified atmosphere of 5% CO2 in air. At the end of the incubation period, myeloid and erythroid colonies are counted under an inverted microscope at 40× magnification. CFU-C content of the expansion culture is calculated as follows: number of scored colonies per three dishes×total mononuclear cell number/input cell number. Up to one week, total mononuclear cells are determined by multiplying the number of cells per milliliter by the culture volume. From week 1 and on, the number of passages is also taken into account. Cultures treated with 4-(2-(2-(benzo[b]thiophen-3-yl)-9-isopropyl-9H-purin-6-ylamino)ethyl)phenol (compound 1, table 1; example 1) at a concentration of 1 micromolar, generated a greater than 10-fold increase in the number of colony forming cells after 21 days of culture of mPB CD34+ cells compared to vehicle. […] Cells treated with a 4-(2-(2-(benzo[b]thiophen-3-yl)-9-isopropyl-9H-purin-6-ylamino)ethyl)phenol (compound 1, table 1; example 1) generated more mixed colonies associated with a >10-fold increase in erythrocyte colonies, a >10-fold increase in granulocyte/macrophage colonies, and a >10-fold increase in macrophage colonies.

CC(C)n1cnc2c(NCCc3ccc(O)cc3)nc(-c3csc4ccccc34)nc21 [Example 1, 4-(2-(2-(benzo[b]thiophen-3-yl)-9-isopropyl-9H-purin-6-ylamino)ethyl)phenol]
agonist activity (AHR dependent transcription) (AHR): only weak agonist activity | inhibition of dioxin induced transcription (AHR): only weakly inhibited | increase in colony forming units compared to control ([1]; 1 micromolar, 1x10^3 CB CD34+ cells, 5 week culture): greater than 10 fold | increase in the number of colony forming cells compared to vehicle ([1]; 1 micromolar, after 21 days of culture of mPB CD34+ cells): greater than 10 fold | mixed granulocyte/erythrocyte/monocyte/macrophage colonies ([1]; not observed in colonies derived from untreated cultures): give rise mixed granulocyte/erythrocyte/monocyte/macrophage colonies | increase in erythrocyte colonies ([1]; treated cells vs untreated): greater than 10 fold | increase in granulocyte/macrophage colonies ([1]; treated cells vs untreated): greater than 10 fold | increase in macrophage colonies ([1]; treated cells vs untreated): greater than 10 fold
